Like-named read-outs stand apart in the source and are kept apart here.
Experiments:
α‐Amylase = details: cited from earlier work
α‐Glucosidase = details: cited from earlier work
Lipase = details: cited from earlier work
[1] = biological target: T1, Lipase from human porcine pancreas (Sus scrofa, UniProt P00591); assay: Lipase inhibition (pNP laurate substrate); assay type: biochemical; details: comparison among the anthocyanins / proanthocyanidin fractions
T1 construct: purchased Sigma‐Aldrich, Inc (Shanghai, China)
T1 sequence (P00591 1-450): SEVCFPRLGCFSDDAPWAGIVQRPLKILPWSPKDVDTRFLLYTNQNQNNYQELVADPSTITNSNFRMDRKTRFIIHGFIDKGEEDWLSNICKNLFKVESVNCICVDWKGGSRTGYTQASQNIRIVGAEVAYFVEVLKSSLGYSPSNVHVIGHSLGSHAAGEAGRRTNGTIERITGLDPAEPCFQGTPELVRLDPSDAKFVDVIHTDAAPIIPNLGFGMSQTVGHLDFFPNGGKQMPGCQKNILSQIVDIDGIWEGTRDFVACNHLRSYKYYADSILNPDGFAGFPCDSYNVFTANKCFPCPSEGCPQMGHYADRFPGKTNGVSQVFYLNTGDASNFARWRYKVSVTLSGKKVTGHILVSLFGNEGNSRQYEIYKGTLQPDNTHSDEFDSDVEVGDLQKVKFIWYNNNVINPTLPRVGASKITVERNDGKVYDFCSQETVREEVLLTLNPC
Excerpt: (§1) All the chemicals used for analyses were of analytical grade and high‐performance liquid chromatography (HPLC) chemicals were of HPLC purity and were all purchased from Sinopharm Chemical Reagent Co., Ltd (Shanghai, China). Lipase from […] porcine pancreas (EC 3.1.1.3), α‐amylase from human pancreas (EC 3.2.1.1), and α‐glucosidase from Bacillus stearothermophilus (EC 3.2.1.20) were obtained from Sigma‐Aldrich, Inc (Shanghai, China). Standards of cyanidin 3‐galactoside, cyanidin 3‐arabinoside, cyanidin 3‐xyloside, cyanidin 3‐glucoside, catechin, and epicatechin were obtained from Sigma‐Aldrich, Inc. (Shanghai, China). Amberlite XAD7HP, Sephadex LH‐20, and ENVI 18 DSK SPE were obtained from Sigma‐Aldrich, Inc (Shanghai, China).
The lipase inhibitory activity was determined according to the method described by Tan et al. ([2017]) with modifications (Table 3). Three hundred and fifty μL phosphate buffer (0.05 M, pH 7.6), 150 μL of porcine lipase enzyme solution (50 mg/mL), and 50 μL of fractionated compounds were added in a centrifuge tube (1.5 mL size) and incubated at 37°C for exactly 10 min. Then, 450 μL pNP laurate substrate was added to the reaction mixture and blended, followed by incubation at 37°C for 120 min without light. The reaction mixture was centrifuged for 10 min at 8000 g and the supernatant of 200 μL was taken into a 96‐well plate to determine the absorbance at 405 nm. The percentage inhibition was calculated using Equation 4. Lipase inhibitory activity was measured at five different concentrations, and a logarithmic regression curve was established to calculate IC50 values (Tan et al., [2017]). (4) Lipase inhibitory activity%=1−As−Ab/At−Ac×100%

[2] = biological target: T2, α‐amylase from human pancreas (Homo sapiens, UniProt P04746); assay: α‐Amylase inhibition (DNS method, soluble starch); assay type: biochemical; details: comparison among the anthocyanins / proanthocyanidin fractions
T2 construct: purchased Sigma‐Aldrich, Inc (Shanghai, China)
T2 sequence (P04746 16-511): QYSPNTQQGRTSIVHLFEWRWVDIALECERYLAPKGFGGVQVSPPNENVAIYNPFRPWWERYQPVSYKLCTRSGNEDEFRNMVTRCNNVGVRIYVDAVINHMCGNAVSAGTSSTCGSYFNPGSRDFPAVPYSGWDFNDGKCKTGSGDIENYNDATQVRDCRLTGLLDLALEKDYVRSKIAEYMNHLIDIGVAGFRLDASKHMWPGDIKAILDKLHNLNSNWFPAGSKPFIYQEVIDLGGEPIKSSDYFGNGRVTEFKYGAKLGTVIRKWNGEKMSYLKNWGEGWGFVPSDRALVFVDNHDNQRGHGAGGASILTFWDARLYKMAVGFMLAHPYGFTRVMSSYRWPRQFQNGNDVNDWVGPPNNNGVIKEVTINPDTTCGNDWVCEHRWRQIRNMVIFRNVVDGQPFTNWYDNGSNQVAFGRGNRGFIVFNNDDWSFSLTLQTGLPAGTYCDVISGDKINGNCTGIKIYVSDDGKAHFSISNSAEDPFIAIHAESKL
Excerpt: as §1, with “Amberlite XAD7HP, Sephadex LH‐20, and ENVI 18 DSK SPE were obtained from Sigma‐Aldrich, Inc (Shanghai, China).” left out
α‐Amylase inhibitory activity was determined using the method from Tan et al. ([2017]), with a slight modification as Table 1 indicates. […] Then, 200 μL of the mixture was taken and added to a 96‐well plate and the absorption at 540 nm was determined. To eliminate the background absorbance produced by the fractionated compounds, an appropriate extract control without enzyme was included. α‐Amylase inhibitory activity was measured at five different concentrations, and a logarithmic regression curve was established to calculate IC50 values (mg/mL) (Tan et al., [2017]). The α‐amylase inhibitory activity was expressed as function 2 and the As, Ab, At, and Ac indicated the absorbance in different solutions as shown in Table 1. […]

[3] = nf, not found, ref Worsztynowicz et al., 2014
[4] = ref Akkarachiyasit et al., 2010

SMILES | IC50 values α‐Amylase (α‐Amylase; [3]) | IC50 values α‐Glucosidase (α‐Glucosidase; ref Bräunlich et al., 2013) | IC50 values Lipase (Lipase; [3]) | inhibition effect on lipase (in words) [1] | IC50 (α‐Amylase; [4]) | IC50 values α‐Glucosidase (α‐Glucosidase; for sucrose, ref Adisakwattana et al., 2009) | IC50 values α‐Amylase (α‐Amylase; [4]) | IC50 values α‐Glucosidase (α‐Glucosidase; for sucrose, ref Akkarachiyasit et al., 2010) | inhibition effect on α‐amylase (in words) [2] | IC50 values Lipase (Lipase; ref Vijayaraj et al., 2019)
Oc1cc(O)c2cc(OC3OCC(O)C(O)C3O)c(-c3ccc(O)c(O)c3)[o+]c2c1 (centres unmarked) [Cyanidin 3‐arabinoside, cyanidin 3‐arabinoside] | 3.98 ± 0.10 mg/mL (Worsztynowicz et al., [2014]) | 0.37 ± 0.08 μg/mL (Bräunlich et al., [2013]) | nf (Worsztynowicz et al., [2014]) | no inhibition effects |  |  |  |  |  | 
OCC1OC(Oc2cc3c(O)cc(O)cc3[o+]c2-c2ccc(O)c(O)c2)C(O)C(O)C1O (centres unmarked) [Cyanidin 3‐galactoside, cyanidin 3‐galactoside] | 5.16 ± 0.06 mg/mL | 1.54 ± 0.1 µg/mL | nf (Worsztynowicz et al., [2014]) | no inhibition effects | > 1000 µM | 224.5 ± 22.45 µg/mL |  |  |  | 
OCC1OC(Oc2cc3c(O)cc(O)cc3[o+]c2-c2ccc(O)c(O)c2)C(O)C(O)C1O (centres unmarked) [Cyanidin 3‐glucoside, cyanidin 3‐glucoside] | 1.74 ± 0.04 mg/mL | 0.87 ± 0.2 µg/mL | 1170 ± 40 mg/L | strongest inhibition effects |  |  | 0.1347 ± 0.00449 mg/mL | 435.53 ± 22.45 µg/mL | strongest inhibition effects | 84.54 ± 2.94 mg/L
Oc1cc(O)c2cc(OC3OCC(O)C(O)C3O)c(-c3ccc(O)c(O)c3)[o+]c2c1 (centres unmarked) [Cyanidin 3‐xyloside, cyanidin 3‐xyloside] | nf (Worsztynowicz et al., [2014]) | 5.5 ± 1.6 μg/mL (Bräunlich et al., [2013]) | nf (Worsztynowicz et al., [2014]) | no inhibition effects |  |  |  |  | no effect | 
